This is an account of results in patent US20170348231A1, “COMPOSITION AND METHOD FOR BUCCAL ADMINISTRATION OF GnRH AGONISTS” (NHTherapeutics INC, priority 2016, published 2017).

In series [1] the test system is male beagle dogs. Put plainly: Oromucosal (buccal) spray in male beagle dogs, testosterone response. Type of series: in vivo. The following applies: 0.5 mg oromucosal spray. As to the method:
The GnRH analogue leuprorelin acetate (leuprolide acetate) which is available as an injectable, was reformulated as described in Example 3. This spray was administered to male beagle dogs at a dose of 0.5 mg suspended in 140 μl and dispensed in a single spray to the inner cheek of male beagle dogs (studies 1 and 2). In addition, formulation 2 was sprayed to the mucosae at the back of the throat in a separate study to determine if this would alter the absorption characteristics (study 3). The two formulations were administered with a one week washout period. Drug was dispensed in a single spray with a volume of 140 μl (studies 1 and 2) or three consecutive sprays (study 3). The aim of the study was to determine if leuprolide could be delivered as an oralmucosal spray and to determine the minimum exposure required to increase levels of testosterone.
The blood levels for leuprolide were monitored 15 minutes before the start of the study and at time “0” (immediately after drug administration), then at 15, 30 minutes and at 1, 2, 3 and 5 hours (postdosing; studies 1 and 2). In addition, for study 3, two additional time points were included at 5 and 10 min post dosing. […]
The study was conducted by the University Health Network in Toronto and specifically at the Toronto Western Hospital. Serum samples were analysed at Inventiv Health in Quebec City.

In series [2] the test system is patient suffering from hypogonadotropic hypogonadism. The following applies: intranasal, daily administration of a low dose; cited from earlier work.
The conditions of series [3]: intranasal; cited from earlier work.
For series [4], the system named is normally menstruating females. The following applies: 25 μg LH-RH each, double stimulation on three consecutive days, 12 females; cited from earlier work.

For the molecule `CCNC(=O)[C@@H]1CCCN1C(=O)[C@H](CCCNC(=N)N)NC(=O)[C@H](CC(C)C)NC(=O)[C@@H](CC(C)C)NC(=O)[C@H](Cc1ccc(O)cc1)NC(=O)[C@H](CO)NC(=O)[C@H](Cc1c[nH]c2ccccc12)NC(=O)[C@H](Cc1c[nH]cn1)NC(=O)[C@@H]1CCC(=O)N1` [Leuprolide acetate, leuprolide acetate], in series [1], the “exposure levels at which the testosterone increase occurred” value is recorded as “at least 30 pg/ml”. Moreover, the “peak testosterone increase compared to baseline” value in series [1] (FIGS. 1a, b) is given as approximately 200%. By bioavailability is commonly meant the share of a dose that reaches the circulation, judged against a reference dose that is usually intravenous. Turning to `CCNC(=O)[C@@H]1CCCN1C(=O)[C@H](CCCNC(=N)N)NC(=O)[C@H](CC(C)C)NC(=O)[C@@H](COC(C)(C)C)NC(=O)[C@H](Cc1ccc(O)cc1)NC(=O)[C@H](CO)NC(=O)[C@H](Cc1c[nH]c2ccccc12)NC(=O)[C@H](Cc1cnc[nH]1)NC(=O)[C@@H]1CCC(=O)N1` [buserelin], the testosterone result in series [2] is “chronic and sustained increase in testosterone”. The bioavailability in series [3] was 3%.

For “luteinizing hormone-releasing hormone (QHWSYGLRPG; Gonadoliberin-1; UniProt P01148 24-33, looked up) [LH-RH, Native or physiological GnRH, hormone secreted by the hypothalamus]”, the “serum LH levels” value in series [4] is listed as “Increases in serum LH levels were found after each of the two stimulations”.
